Data on 4 compounds can be found in patent US20240400722A1, “Chemically Inducible Heterodimerizing System and A Method For Generation Thereof” (Miltenyi Biotec B.V. & Co. KG, priority 2023, published 2024).

SMILES strings stand for the structures. “Also recorded” adds a separate entry of the source.

In general, Kd refers to the concentration at which binding is half-saturated.

The subject of one data set is acVHH-V104D/dfM1-2. The experiment in a line: NanoBiT assay in Jurkat T cells, small molecule titration of acVHH-V104D/dfM1-2. It is filed as cell-based, llama. The text has this: (§1) The ac VHH variants were N-terminally fused to an extracellular globular domain used to assess expression, as well as a transmembrane domain, and C-terminally fused to a subunit of the split NanoLuc (NanoBiT® system), Promega. Thus, the resulting fusion protein consisted of an extracellular globular domain, followed by a transmembrane domain and intracellular ac VHH variants followed by a subunit of split NanoLuc luciferase.
(§2) The different chains built were as follows: the first polypeptide chain comprised truncated EGFR extracellular and transmembrane domain, followed by a 2×G4S linker and cither ac VHH-V104D or ac VHH-WT, followed by a linker (SEQ ID NO:31) and 11S NanoBiT® “Large BiT”, whereas the second polypeptide chain comprised truncated HER2 extracellular and transmembrane domain, followed by a linker (SEQ ID NO:32) and either ac VHH-V104D or ac VHH-WT or ac VHH-M1 or acVHH-M2 or dfM1-1 or dfM1-2, followed by a linker (SEQ ID NO:33) and 114 NanoBiT® “Small BiT”. […] The principle of the assay is as follows: upon binding of (i.e. dimerization) of the respective ac VHH variants, the fused NanoLuc luciferase subunits are brought into close proximity (the two subunits being fused to the two different polypeptide chains, respectively), thus resulting in a functional luciferase enzyme, whose activity can be measured. […]

A further data set has as its system acVHH-V104D+acVHH-M2. It is filed as binding, llama. The conditions noted are these: 500 nM soluble acVHH-V104D ± 10 μM compound. The procedure:
(§3) Expression of the acVHH variants on yeast was induced by culturing the cells in SG-CAA medium (20 g/L galactose, 2 g/L glucose, 6.7 g/L yeast nitrogen base, 5 g/L bacto casamino acids, 10.2 g/L Na2HPO4*7 H2O, 8.56 g/L NaH2PO4*H2O) overnight at 20° C. and 180 rpm. Detection of full-length proteins on the surface of the cells was carried out by staining the cells with anti-c-myc AlexaFluor 488 (9E10, Thermo Fisher). […] After a washing step with PBSA, they were stained with an anti-HA-Alexa Fluor 488 (BioLegend) to gate for displaying yeast cells and the geometric mean fluorescence intensity (gMFI) of binding to acVHH-V104D, detected by co-staining with a Penta-His-Alexa Fluor 647 (Qiagen) (recognizing the His-tag on acVHH-V104D) was measured.

The test system of the next data set is acVHH-V104D/dfM1-1. The experiment in a line: NanoBiT assay in Jurkat T cells, small molecule titration of acVHH-V104D/dfM1-1. It counts as cell-based, llama.
Source text: as §1, §2

The subject of another data set is acVHH-V104D+acVHH-M1. The experiment in a line: Yeast display, small molecule-triggered heterodimerization acVHH-V104D + acVHH-M1. It counts as binding, llama. As to conditions: 500 nM soluble acVHH-V104D ± 10 μM compound. The procedure:
as §3
(§4) 56 clones of the library were sequenced as explained in Example 2. […] Their binding and affinity to soluble acVHH-V104D as well as full length display was assessed with yeast surface display as described in Example 2.
(§5) EC50 values were calculated like the KD values by fitting the gMFI binding values to a 1:1 binding interaction model (Zajc et al., Methods Mol Biology. 2022; 2491:155-173).

The test system of another data set is V104D+dfM1-2. As to conditions: 500 nM soluble acVHH-V104D ± 10 μM compound. On the procedure: as §3, §4, §5
Another data set concerns V104D+dfM1-1. As to conditions: 500 nM soluble acVHH-V104D ± 10 μM compound. On the procedure:
as §3, §4, §5

A further data set concerns the target acVHH-V104D. The conditions noted are these: read-out: binding affinity (KD) of caffeine to acVHH-V104D; SPR multi-cycle kinetics, steady state analysis; acVHH-V104D immobilised on CM5 chip. On the procedure:
A stock of 30 μg/mL protein ac VHH-V104D was prepared in 10 mM NaAc buffer of pH 5 and covalently immobilised on a CM5 chip (GE Healthcare) with a 300 sec contact time and 10 μL/min flow rate to reach 4 600 response units (RU). […] KD values were obtained by steady state analysis.

Data set [1] has as its system CD19-positive Jurkat target cells. The experiment in a line: Lysis of target cells by split CAR-expressing primary human T cells with or without dimerizer. It is filed as cell-based. As to conditions: 50 μM caffeine or medium only, E:T 2:1, 4 h; split CARs with dfM1-1 or dfM1-2 and acVHH V104D.
Source text: 4 different architectures of split CARs consisting of two chains were investigated per acVHH variant where both the first and second chain of the split CAR is either monomeric or dimeric. A dimeric first CAR chain entails an FMC63 scFv followed by a linker followed by a Flag tag followed by a CD8a hinge and transmembrane domain followed by a 4-1BB co-stimulatory domain followed by a linker followed by acVHH dfM1-1 or dfM1-2 (SEQ ID NO:34 where ac VHH is dfM1-1). The only difference for a monomeric first CAR chain is the mutation of the two cysteine residues in the CD8a hinge to serine residues (SEQ ID NO:35). A dimeric second chain entails a DAP10 extracellular domain followed by a CD8 transmembrane domain followed by 2 amino acids followed by a 4-1BB co-stimulatory domain followed by a linker followed by ac VHH V104D followed by a linker followed by CD3z signaling domain followed by a linker followed by m Cherry (SEQ ID NO:36). […]
After electroporation, the cells were incubated for 6 h at 37° C. […] The cells were co-cultured for 4 h at 37° C., then 150 μg/mL luciferin (Xenolight D-luciferin, Perkin Elmer) was added to each well and luminescence was measured after 20 min with an ENSPIRE Multimode plate reader (Perkin Elmer). Specific lysis was calculated according to the formula:
For data set [2] the following is noted: cited from earlier work.
The test system of a further data set is Raji target cells. Put plainly: IFN-γ and IL-2 secretion (ELISA) of transduced split CAR T cells co-cultured with Raji target cells. The conditions noted are these: medium, 0.1 μM or 100 μM caffeine, overnight, E:T 2:1. It counts as cell-based, human.
The next data set relates to acVHH-V104D/acVHH-M1. As to conditions: Jurkat T cells; compared with homodimeric switch acVHH-WT.
Source text: as §1, §2

Where [3] appears, read: increasing concentrations of theobromine.
[4] abbreviates: compared with homodimeric switch acVHH-WT.

Source text for Raji target cells: The nucleotide sequence encoding the monomeric CAR chain 1 (SEQ ID NO:34) containing dfM1-1 was fused to the nucleotide sequence encoding the dimeric CAR chain 2 (SEQ ID NO:36) or to the nucleotide sequence encoding monomeric CAR chain 2 (SEQ ID NO:37) via a furin cleavage site and 2A sequence (SEQ ID NO:41) and cloned into a third generation lentiviral expression vector with puromycin resistence gene (pCDH, System Biosciences). This plasmid, along with second-generation viral packaging plasmids (psPAX2 and pMD2.G, Addgene plasmids #12260 and #12259), was co-transfected in Lenti-X 293T cells (Takara) using the PureFection Transfection Reagent (System Biosciences) according to instructions provided by the manufacturer. Supernatants were collected on day 2 and 3 following transfection and concentrated 100-fold using Lenti-X Concentrator (Takara) according to the manufacturer's instructions. Viral suspensions were resuspended in RPMI-1640 medium supplemented with 10% FCS and 1% penicillin-streptomycin and frozen at −80° C. […]
Supernatants of triplicate wells were pooled and stored at −80° C. IFN-γ and IL-2 secretion was quantified by ELISA using kits from Biolegend (ELISA MAX Deluxe Set Human IFN-γ and ELISA MAX Deluxe Set Human IL-2, respectively), according to the manufacturer's instructions.

On to `Cn1cnc2c1c(=O)[nH]c(=O)n2C` [theobromine], for which the “triggering of heterodimeric switch acVHH-V104D/dfM1-2” value with acVHH-V104D/dfM1-2 (setting [3]) was “can trigger”. Besides, in the data set with acVHH-V104D+acVHH-M2, the “triggering of heterodimerization acVHH-V104D/acVHH-M2” value is recorded as “can trigger”. Besides, in the data set on acVHH-V104D/dfM1-1 (setting [3]), the “triggering of heterodimeric switch acVHH-V104D/dfM1-1” value is listed as “can trigger”. Further, the “triggering of heterodimerization acVHH-V104D/acVHH-M1” value in the data set with acVHH-V104D+acVHH-M1 was “can trigger”.
With `Cn1c(=O)c2[nH]cnc2n(C)c1=O` [theophylline], the “triggering of heterodimerization acVHH-V104D/dfM1-2” value with V104D+dfM1-2 is “can be triggered”. Further, the “triggering of heterodimerization acVHH-V104D/dfM1-1” value in the data set with V104D+dfM1-1 is “can be triggered”. Besides, the “triggering of heterodimerization acVHH-V104D/acVHH-M2” value in the data set with acVHH-V104D+acVHH-M2 is “can trigger”. The “triggering of heterodimerization acVHH-V104D/acVHH-M1” value in the data set on acVHH-V104D+acVHH-M1 is recorded as “can trigger; also recorded: can be triggered”.
For the compound `Cn1c(=O)c2c(ncn2C)n(C)c1=O` [caffeine], at acVHH-V104D, the Kd was 72.4 mM. Further, the “lysis of CD19-positive Jurkat T cells by split CAR T cells” value in data set [1] was “caffeine-dependent cytotoxic activity”. The “EC50 for caffeine, V104D+dfM1-2, NanoBiT” value in the data set on acVHH-V104D/dfM1-2 (setting [4]) is listed as “increased”. Moreover, the “EC50 for caffeine, V104D+dfM1-1, NanoBiT” value in the data set on acVHH-V104D/dfM1-1 (setting [4]) is reported as “increased”. In data set [2] (absence of coffee, tea and chocolate consumption for 21 days, detection limit of the method), the “plasma levels of caffeine” value was below 500 nM. Further, the “maximum plasma caffeine levels” value in [2] (after drinking one cup of coffee) was around 10 µM. For the same compound, the caffeine plasma levels in data set [2] (nonhabitual coffee drinkers after coffee abstinence for at least 16 hours) is 1.9 ± 1.6 µmol/L. Moreover, in the data set with Raji target cells, the “IFN-γ and IL-2 secretion of split CAR T cells” value is given as “strong dependence”. For the same compound, the “EC50 for caffeine, V104D+M1, NanoBiT” value in the data set on acVHH-V104D/acVHH-M1 is reported as “increased”.
`Cn1c(=O)[nH]c2ncn(C)c2c1=O` [paraxanthine]: in the data set with acVHH-V104D+acVHH-M2, the “triggering of heterodimerization acVHH-V104D/acVHH-M2” value is recorded as “can trigger”. Moreover, the “triggering of heterodimerization acVHH-V104D/acVHH-M1” value in the data set on acVHH-V104D+acVHH-M1 is “can trigger”.
